Results reported in PubChem BioAssay AID2060493 (Molecular Pharmacology Branch, DTP, NCI, 2025).

Tested on: 616215-338-R-J1-PDC tumor spheroids, viability
Assay: Anticancer human tumor 616215-338-R-J1-PDC patient-derived colon adenocarcinoma cell line growth inhibition [GQUAD]
Conditions: spheroids with HUVEC and MSC; for IC50: curve of first compound; for viability, T/C: stronger effect = lower value; active = viability on the fitted dose curve at most 10% of control; inactive = the rest
Summary of the method: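 Multi-cell-type spheroids of tumor cells with HUVEC and mesenchymal stem cells, treated with drug combinations. Concentrations descend in half-log steps from near clinical Cmax, or from 10 microM where Cmax is unknown; viability read-out.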

[1] = second compound 0.0316 µM, first compound 0.0316 µM
[2] = second compound 0.0316 µM, first compound 0.1 µM
[3] = second compound 0.0316 µM, first compound 0.316 µM
[4] = second compound 0.0316 µM, first compound 1 µM
[5] = second compound 0.0316 µM, first compound 3.16 µM
[6] = second compound 0.0316 µM, first compound 10 µM
[7] = second compound 0.1 µM, first compound 0.0316 µM
[8] = second compound 0.1 µM, first compound 0.1 µM
[9] = second compound 0.1 µM, first compound 0.316 µM
[10] = second compound 0.1 µM, first compound 1 µM
[11] = second compound 0.1 µM, first compound 3.16 µM
[12] = second compound 0.1 µM, first compound 10 µM
[13] = second compound 0.316 µM, first compound 0.0316 µM
[14] = second compound 0.316 µM, first compound 0.1 µM
[15] = second compound 0.316 µM, first compound 0.316 µM
[16] = second compound 0.316 µM, first compound 1 µM
[17] = second compound 0.316 µM, first compound 3.16 µM
[18] = second compound 0.316 µM, first compound 10 µM
[19] = second compound 1 µM, first compound 0.0316 µM
[20] = second compound 1 µM, first compound 0.1 µM
[21] = second compound 1 µM, first compound 0.316 µM
[22] = second compound 1 µM, first compound 1 µM
[23] = second compound 1 µM, first compound 3.16 µM
[24] = second compound 1 µM, first compound 10 µM
[25] = second compound 3.16 µM, first compound 0.0316 µM
[26] = second compound 3.16 µM, first compound 0.1 µM
[27] = second compound 3.16 µM, first compound 0.316 µM
[28] = second compound 3.16 µM, first compound 1 µM
[29] = second compound 3.16 µM, first compound 3.16 µM
[30] = second compound 3.16 µM, first compound 10 µM
[31] = second compound 10 µM, first compound 0.0316 µM
[32] = second compound 10 µM, first compound 0.1 µM
[33] = second compound 10 µM, first compound 0.316 µM
[34] = second compound 10 µM, first compound 1 µM
[35] = second compound 10 µM, first compound 3.16 µM
[36] = second compound 10 µM, first compound 10 µM
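Note: spheroids exposed to agents for 7 days before readout.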
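Throughout, for viability, T/C: percent viability relative to DMSO vehicle control wells taken as 100%.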

C=CC(=O)N1CCN(c2nc(=O)n(-c3c(C)ccnc3C(C)C)c3nc(-c4c(O)cccc4F)c(F)cc23)C(C)C1 (stereo unspecified) + Cc1[nH]c2ccc(F)cc2c1-c1nc2c3cccnc3c3ncccc3c2[nH]1
> 10000 nM: IC50 (second compound 0.0316 µM) | IC50 (second compound 0.1 µM) | IC50 (second compound 0.316 µM) | IC50 (second compound 1 µM) | IC50 (second compound 3.16 µM) | IC50 (second compound 10 µM)
inactive: viability, T/C [1] 102% | viability, T/C [2] 95% | viability, T/C [3] 97.3% | viability, T/C [4] 104% | viability, T/C [5] 89.7% | viability, T/C [6] 82.1% | viability, T/C [7] 102% | viability, T/C [8] 92.5% | viability, T/C [9] 102% | viability, T/C [10] 96.9% | viability, T/C [11] 93.9% | viability, T/C [12] 71.6% | viability, T/C [13] 87.4% | viability, T/C [14] 98.6% | viability, T/C [15] 96.8% | viability, T/C [16] 108% | viability, T/C [17] 88.6% | viability, T/C [18] 67.7% | viability, T/C [19] 99.7% | viability, T/C [20] 93.2% | viability, T/C [21] 90.8% | viability, T/C [22] 105% | viability, T/C [23] 92.5% | viability, T/C [24] 71.8% | viability, T/C [25] 100% | viability, T/C [26] 88.2% | viability, T/C [27] 107% | viability, T/C [28] 88.3% | viability, T/C [29] 87.6% | viability, T/C [30] 59.1% | viability, T/C [31] 99.7% | viability, T/C [32] 84.9% | viability, T/C [33] 88% | viability, T/C [34] 90.2% | viability, T/C [35] 86.2% | viability, T/C [36] 69.2%

CCc1c2c(nc3ccc(O)cc13)-c1cc3c(c(=O)n1C2)COC(=O)[C@]3(O)CC + Cc1[nH]c2ccc(F)cc2c1-c1nc2c3cccnc3c3ncccc3c2[nH]1
12 nM: IC50 (second compound 1 µM)
7.87 nM: IC50 (second compound 10 µM)
8.78 nM: IC50 (second compound 0.316 µM)
13.2 nM: IC50 (second compound 3.16 µM)
inactive: viability, T/C (second compound 0.0316 µM, first compound 0.000999 µM) 97.3% | viability, T/C (second compound 0.0316 µM, first compound 0.00316 µM) 81.9% | viability, T/C (second compound 0.0316 µM, first compound 0.00999 µM) 53.6% | viability, T/C [1] 43% | viability, T/C (second compound 0.0316 µM, first compound 0.0999 µM) 23.4% | viability, T/C [3] 12.8% | viability, T/C (second compound 0.1 µM, first compound 0.000999 µM) 94.5% | viability, T/C (second compound 0.1 µM, first compound 0.00316 µM) 100% | viability, T/C (second compound 0.1 µM, first compound 0.00999 µM) 46.3% | viability, T/C [7] 33.1% | viability, T/C (second compound 0.1 µM, first compound 0.0999 µM) 24.9% | viability, T/C [9] 19.9% | viability, T/C (second compound 0.316 µM, first compound 0.000999 µM) 96.5% | viability, T/C (second compound 0.316 µM, first compound 0.00316 µM) 90.3% | viability, T/C (second compound 0.316 µM, first compound 0.00999 µM) 42.5% | viability, T/C [13] 32.3% | viability, T/C (second compound 0.316 µM, first compound 0.0999 µM) 21.8% | viability, T/C [15] 13.8% | viability, T/C (second compound 1 µM, first compound 0.000999 µM) 108% | viability, T/C (second compound 1 µM, first compound 0.00316 µM) 76.8% | viability, T/C (second compound 1 µM, first compound 0.00999 µM) 58.9% | viability, T/C [19] 28.5% | viability, T/C (second compound 1 µM, first compound 0.0999 µM) 21.7% | viability, T/C [21] 16.4% | viability, T/C (second compound 3.16 µM, first compound 0.000999 µM) 98.5% | viability, T/C (second compound 3.16 µM, first compound 0.00316 µM) 86.5% | viability, T/C (second compound 3.16 µM, first compound 0.00999 µM) 51.2% | viability, T/C [25] 35.2% | viability, T/C (second compound 3.16 µM, first compound 0.0999 µM) 20.7% | viability, T/C [27] 14.5% | viability, T/C (second compound 10 µM, first compound 0.000999 µM) 90.3% | viability, T/C (second compound 10 µM, first compound 0.00316 µM) 74.9% | viability, T/C (second compound 10 µM, first compound 0.00999 µM) 42.5% | viability, T/C [31] 24.5% | viability, T/C (second compound 10 µM, first compound 0.0999 µM) 20.5% | viability, T/C [33] 13.4%
9.2 nM: IC50 (second compound 0.1 µM)
16.7 nM: IC50 (second compound 0.0316 µM)

COc1cccc2c1C(=O)c1c(O)c3c(c(O)c1C2=O)CC(O)(C(=O)CO)CC3OC1CC(N)C(O)C(C)O1 (stereo unspecified) + Cc1[nH]c2ccc(F)cc2c1-c1nc2c3cccnc3c3ncccc3c2[nH]1
771 nM: IC50 (second compound 0.0316 µM)
504 nM: IC50 (second compound 0.1 µM)
inactive: viability, T/C [1] 108% | viability, T/C [2] 88.2% | viability, T/C [3] 58.6% | viability, T/C [4] 39.3% | viability, T/C [5] 38.8% | viability, T/C [7] 96.8% | viability, T/C [8] 92.8% | viability, T/C [9] 46.3% | viability, T/C [10] 41.5% | viability, T/C [11] 21.6% | viability, T/C [13] 105% | viability, T/C [14] 75.5% | viability, T/C [15] 53.7% | viability, T/C [16] 49% | viability, T/C [17] 18.7% | viability, T/C [19] 91.7% | viability, T/C [20] 91.2% | viability, T/C [21] 71.6% | viability, T/C [22] 44.5% | viability, T/C [23] 27.6% | viability, T/C [25] 89.2% | viability, T/C [26] 84.6% | viability, T/C [27] 50% | viability, T/C [28] 39% | viability, T/C [29] 23.4% | viability, T/C [31] 103% | viability, T/C [32] 76.2% | viability, T/C [33] 55.6% | viability, T/C [34] 54.8% | viability, T/C [35] 20.1%
554 nM: IC50 (second compound 0.316 µM)
937 nM: IC50 (second compound 1 µM)
506 nM: IC50 (second compound 3.16 µM)
active: viability, T/C [6] 2.47% | viability, T/C [12] 4% | viability, T/C [18] 2.01% | viability, T/C [24] 2.3% | viability, T/C [30] 1.17% | viability, T/C [36] 1.64%
623 nM: IC50 (second compound 10 µM)
